Values belong to the molecule of their own block, whether it stands above or below them.
Columns and labels:
[1] = tested on: CRE reporter in GBCC13; test: Constitutive activity of GPCR, Method 2 (GBCC13 host, firefly luciferase); assay type: cell-based, human; conditions: activity with 17β-estradiol divided by activity without, control plasmid about 1
Procedure: After the incubation, Steady Glo Luciferase Assay System (manufactured by Promega) was added and firefly luciferase activity was measured. For the measurement of activity, Auto Lumat LB953 (manufactured by Berthold) or Top Count (Packard) was used. […] It is judged that the higher the induction ratio of the cells to which a GPCR expression plasmid was transfected, the stronger the constitutive activity of the GPCR.

[2] = tested on: sulfonylurea receptor; test: Intracellular Ca2+ rise on sulfonylurea in immortalized cell lines derived from hypothalamus (Fura-2AM, CAF-110); assay type: cell-based, rat; conditions: 0.5 mmol/L
Procedure: The immortalized cell lines (a mixture) derived from hypothalamus of female adult rat obtained in Example 3 were cultured by the method mentioned in Example 1. […] The resulting cells were washed with an HBSS buffer (manufactured by Gibco) twice and the cells were floated. Sulfonylurea (Tolbutamide; manufactured by Alexis) was added to about 1×10^6 cell to make its final concentration 0.5 mmol/L and a rise in Ca^2+ concentration in the cells was checked. Measurement of the Ca^2+ concentration in the cells was conducted using a CAF-110 instrument (manufactured by Nippon Bunko).
As same as in the above (1), reactivity of an immortalized cell line (single clone AMN2-25) derived from hypothalamus of male adult rat obtained in Example 3 with sulfonylurea was tested.

[3] = biological target: T1, sulfonylurea receptor (Rattus norvegicus, UniProt Q09429); test: Intracellular Ca2+ rise on sulfonylurea in single clones derived from Langerhans islets (Fura-2AM); assay type: cell-based; conditions: single clones M-6, M-9, M-15, M-19, M-20, M-33, M-43, F-1 and F-9; 0.5 mmol/L
T1 construct: endogenous in cells; host or cells: rat islet-derived clones M-6, M-9, M-15, M-19, M-20, M-33, M-43, F-1, F-9
Procedure: About 5×10^6 cells of single clones (M-6, M-9, M-15, M-19, M-20, M-33, M-43, F-1 and F-9) of immortalized cell lines mentioned in Example 11 obtained using an RPMI 1640 (05918) medium were plated on a 60-mm dish and cultured at 33° C. for 2 days using an RPMI 1640 (05918) medium.
After the cultivation, it was washed with an HBSS buffer (manufactured by Gibco) for two times and the cells were floated. Sulfonylurea (Tolbutamide, manufactured by Alexis) was added to about 1×10^6 of the cells so as to make the final concentration 0.5 mmol/L whereupon an increase in Ca^2+ concentration in the cells was checked. Measurement of the Ca^2+ concentration in the cells was carried out using a CAF-100 instrument (manufactured by Nippon Bunko).

[4] = tested on: CRE reporter in GBC7; test: Constitutive activity of GPCR, Method 4 (GBC7 host, firefly luciferase); assay type: cell-based, human; conditions: activity with 17β-estradiol divided by activity without, control plasmid about 1
Procedure: This is a measuring method for constitutive activity of GPCR which is the same as Method 2 except that GBC7 was used as a host and no puromycin was added in the incubation of the transformants.
(§1) In each method, the induction ratio of the cells transfected with the control plasmid was about 1. It is judged that the higher the induction ratio of the cells to which a GPCR expression plasmid was transfected, the stronger the constitutive activity of the GPCR.

[5] = biological target: T2, leptin receptor (Ob-Rb) (Rattus norvegicus, UniProt Q62959); test: Leptin reactivity: immunostaining using an anti-STAT antibody (STAT3 transfer from cytoplasm to nucleus); assay type: cell-based; conditions: NC-6, NC-12 and AMN2-25; 100 nmol/L human leptin, 37° C., 15 minutes; without leptin cytoplasm was stained
T2 construct: endogenous in cells; host or cells: rat hypothalamus-derived immortalized lines NC-6, NC-12, AMN2-25
T2 sequence (Q62959 22-1162): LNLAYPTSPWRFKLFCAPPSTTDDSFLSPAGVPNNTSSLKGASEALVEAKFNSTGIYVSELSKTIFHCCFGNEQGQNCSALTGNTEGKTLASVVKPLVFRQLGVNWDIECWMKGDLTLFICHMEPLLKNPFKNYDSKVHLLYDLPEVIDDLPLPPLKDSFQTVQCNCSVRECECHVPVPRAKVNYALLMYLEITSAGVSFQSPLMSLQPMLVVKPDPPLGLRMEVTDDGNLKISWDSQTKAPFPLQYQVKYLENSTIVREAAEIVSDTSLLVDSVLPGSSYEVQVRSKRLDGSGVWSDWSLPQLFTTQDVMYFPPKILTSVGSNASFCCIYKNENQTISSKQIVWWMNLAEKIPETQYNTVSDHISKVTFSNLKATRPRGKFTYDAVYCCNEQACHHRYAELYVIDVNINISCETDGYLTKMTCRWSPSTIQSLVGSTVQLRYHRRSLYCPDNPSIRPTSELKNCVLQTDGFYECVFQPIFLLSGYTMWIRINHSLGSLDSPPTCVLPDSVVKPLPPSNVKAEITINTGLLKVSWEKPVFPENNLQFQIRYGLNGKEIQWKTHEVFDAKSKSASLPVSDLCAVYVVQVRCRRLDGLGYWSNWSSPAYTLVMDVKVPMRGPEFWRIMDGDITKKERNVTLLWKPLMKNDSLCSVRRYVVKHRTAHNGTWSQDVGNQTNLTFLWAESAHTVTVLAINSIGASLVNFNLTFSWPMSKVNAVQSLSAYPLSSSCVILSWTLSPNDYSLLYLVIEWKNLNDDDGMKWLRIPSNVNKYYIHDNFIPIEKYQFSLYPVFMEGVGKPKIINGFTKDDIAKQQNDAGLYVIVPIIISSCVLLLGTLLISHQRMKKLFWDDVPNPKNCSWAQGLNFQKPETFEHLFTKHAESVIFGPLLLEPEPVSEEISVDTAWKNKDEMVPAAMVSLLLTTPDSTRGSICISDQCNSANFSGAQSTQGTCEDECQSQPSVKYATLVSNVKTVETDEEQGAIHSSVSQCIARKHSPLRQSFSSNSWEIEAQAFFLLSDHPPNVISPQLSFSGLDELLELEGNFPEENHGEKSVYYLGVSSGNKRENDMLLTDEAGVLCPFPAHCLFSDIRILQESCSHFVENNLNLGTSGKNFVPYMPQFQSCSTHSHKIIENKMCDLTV
Procedure: In a cell line where expression of a leptin receptor (Ob-Rb) protein is confirmed by the method mentioned in Example 7, it was analyzed by the following method whether a functional Ob-Rb is expressed. The following method is a method where the fact that a transcription factor STAT3 is phosphorylated upon stimulation by leptin and is transferred from cytoplasm to nucleus is utilized.
NC-6, NC-12 and AMN2-25 expressing leptin receptor (Ob-Rb) protein are cultured according to the method mentioned in Example 1. After the cultivation, about 1×10^3 cells were plated on 8 chambers coated with CELL-TAK and cultured for 3 days where cultivation temperature was shifted from 33° C. to 37° C. […] After the cultivation, exchange to a DMEM/F-12 (-FCS) medium was conducted. After 2 hours from the exchange of the medium, the cells were stimulated with 100 nmol/L of human leptin (manufactured by R&D Systems) at 37° C. for 15 minutes.
After the stimulation, immunostaining was carried out using an anti-STAT antibody (manufactured by NEB) and a cyanine 3-labeled anti-rabbit IgG (secondary antibody) diluted to an extent of 200-fold. The immunostaining was carried out according to the manual of Phospho Plus Stat 3 (Tyr 705) Antibody it (NEB). […] After the staining, drying was conducted, mounting with a discoloration inhibitor solution was done and an observation under a fluorescence microscope was carried out.

[6] = biological target: T2, leptin receptor (Ob-Rb); test: Leptin reactivity: change in expression of c-fos gene and SOCS-3 gene by PCR; assay type: cell-based; conditions: NC-6, NC-12 and AMN2-25; 100 nmol/L human leptin, 0 minute, 30 minutes or 1 hour
Procedure: Expression of c-fos gene and SOCS-3 gene, which has been known to be increased in hypothalamic cells by leptin stimulation, was analyzed by the following method utilizing a PCR whereby the leptin reactivity of the cell line, which was confirmed to be expressing a functional OB-Rb in the above (1), was confirmed from another view.
NC-6, NC-12 and AMN2-25 were cultured according to the method mentioned in Example 1. After the cultivation, about 2×10^4 cells were plated on a 35-mm dish coated with poly-lysine and cultured out for 5 days by shifting the cultivation temperature from 33° C. to 37° C. […] After the cultivation, exchange to a DMEM/F-12 (-FCS) medium was done.
After 2 hours from the exchange of the medium, 100 nmol/L of human leptin (manufactured by R&D Systems) was added. After incubating at 37° C. for 0 minute, 30 minutes or 1 hour, total RNA was collected from each cell line using an RNeasy Mini Kit (manufactured by Qiagen). Single-stranded cDNA was synthesized from the total RNA according to the method mentioned in Example 6 and a PCR was carried out using the cDNA as a template. With regard to primers specific to c-fos gene, synthetic DNAs having the nucleotide sequences of SEQ ID NOS: 45 and 46 were used while, with regard to primers specific to SOCS-3 gene, synthetic DNAs having the nucleotide sequences of SEQ ID NOS: 47 and 48 were used. […]

[7] = tested on: CRE reporter in GBCR2; test: Constitutive activity of GPCR, Method 3 (GBCR2 host, Renilla reniformis luciferase); assay type: cell-based, human; conditions: activity with 17β-estradiol divided by activity without, control plasmid about 1
Procedure: This is a measuring method for constitutive activity of GPCR which is the same as Method 1 except that GBCR2 was used as a host and no puromycin was added in the incubation of the transformants.
as §1

T1 sequence (Q09429 whole entry): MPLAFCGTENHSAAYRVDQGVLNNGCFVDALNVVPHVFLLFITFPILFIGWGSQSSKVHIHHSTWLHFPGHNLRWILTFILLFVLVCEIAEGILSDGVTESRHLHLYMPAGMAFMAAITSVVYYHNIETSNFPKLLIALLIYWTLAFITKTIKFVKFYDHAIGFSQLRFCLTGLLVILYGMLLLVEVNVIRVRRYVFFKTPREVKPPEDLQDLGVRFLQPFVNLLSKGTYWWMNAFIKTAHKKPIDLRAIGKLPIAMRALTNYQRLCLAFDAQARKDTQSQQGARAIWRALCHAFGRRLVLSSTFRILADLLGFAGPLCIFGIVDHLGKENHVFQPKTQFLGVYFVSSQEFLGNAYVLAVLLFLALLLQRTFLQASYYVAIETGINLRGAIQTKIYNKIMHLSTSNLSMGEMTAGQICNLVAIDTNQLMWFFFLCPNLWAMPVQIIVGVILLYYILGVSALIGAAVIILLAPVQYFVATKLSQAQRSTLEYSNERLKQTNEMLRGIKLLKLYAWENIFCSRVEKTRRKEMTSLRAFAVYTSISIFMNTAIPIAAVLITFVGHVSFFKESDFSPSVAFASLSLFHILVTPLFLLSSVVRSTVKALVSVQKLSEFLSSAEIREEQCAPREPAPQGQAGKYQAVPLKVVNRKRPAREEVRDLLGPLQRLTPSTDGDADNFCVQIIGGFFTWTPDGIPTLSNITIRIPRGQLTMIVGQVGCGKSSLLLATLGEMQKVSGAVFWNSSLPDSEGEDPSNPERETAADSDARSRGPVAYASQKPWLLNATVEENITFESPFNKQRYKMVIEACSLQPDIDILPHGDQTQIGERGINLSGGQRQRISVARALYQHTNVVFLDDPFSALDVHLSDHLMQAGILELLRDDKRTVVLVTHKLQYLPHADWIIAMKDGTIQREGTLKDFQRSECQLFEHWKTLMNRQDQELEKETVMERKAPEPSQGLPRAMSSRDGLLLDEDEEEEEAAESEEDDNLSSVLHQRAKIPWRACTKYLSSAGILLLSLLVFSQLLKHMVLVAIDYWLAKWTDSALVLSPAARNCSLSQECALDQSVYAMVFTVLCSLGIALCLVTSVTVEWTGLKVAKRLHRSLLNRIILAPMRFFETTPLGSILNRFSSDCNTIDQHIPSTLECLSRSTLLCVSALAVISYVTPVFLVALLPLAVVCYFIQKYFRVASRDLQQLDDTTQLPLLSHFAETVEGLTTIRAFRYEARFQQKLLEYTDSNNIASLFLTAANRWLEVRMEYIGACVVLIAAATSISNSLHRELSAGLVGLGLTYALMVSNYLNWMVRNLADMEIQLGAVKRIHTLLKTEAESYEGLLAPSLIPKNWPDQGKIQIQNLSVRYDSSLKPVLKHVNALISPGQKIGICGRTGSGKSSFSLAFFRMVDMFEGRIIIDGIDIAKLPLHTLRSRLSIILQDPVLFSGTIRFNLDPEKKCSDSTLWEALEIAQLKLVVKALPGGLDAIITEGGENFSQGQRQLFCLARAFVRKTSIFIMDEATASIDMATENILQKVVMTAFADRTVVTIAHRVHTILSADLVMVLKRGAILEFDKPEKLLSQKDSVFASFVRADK
T1 sequence (P70673 whole entry partner): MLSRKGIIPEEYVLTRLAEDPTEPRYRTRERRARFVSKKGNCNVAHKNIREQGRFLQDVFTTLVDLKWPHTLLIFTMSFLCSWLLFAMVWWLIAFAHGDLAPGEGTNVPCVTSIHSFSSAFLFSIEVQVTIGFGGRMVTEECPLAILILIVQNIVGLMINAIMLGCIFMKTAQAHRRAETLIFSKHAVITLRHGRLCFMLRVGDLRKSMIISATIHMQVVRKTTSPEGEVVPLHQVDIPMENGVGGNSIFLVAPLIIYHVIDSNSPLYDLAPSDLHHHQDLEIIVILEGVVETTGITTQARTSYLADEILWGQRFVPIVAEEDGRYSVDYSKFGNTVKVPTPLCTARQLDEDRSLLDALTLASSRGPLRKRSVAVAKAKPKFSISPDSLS

Molecule: CCCCNC(=O)NS(=O)(=O)c1ccc(C)cc1 [sulfonylurea, Tolbutamide]
rise in Ca2+ concentration in the cells ([2]; immortalized cell lines (a mixture) from hypothalamus of female adult rat): cell lines which reacted with sulfonylurea were present | Ca2+ concentration in the cell ([2]; single clone AMN2-25): increased | Ca2+ concentration in the cells [3]: increased

Molecule: GPR 52
Constitutive Activity (induction ratio) [4]: 40-fold

Further lines, results first:

Constitutive Activity (induction ratio) [1]: 4.8-fold
Molecule: GPR 25

STAT3 immunostaining upon stimulation with leptin [5]: the area inside the nucleus was stained | expression of SOCS-3 gene by stimulation with leptin [6]: increased | expression of c-fos gene by stimulation with leptin [6]: increased
Molecule: leptin: human leptin (manufactured by R&D Systems)

Constitutive Activity (induction ratio) [7]: 188-fold
B1: GPR 12 (protein, UniProt P47775 1-334, looked up)
G-protein coupled receptor 12: MNEDLKVNLSGLPRDYLDAAAAENISAAVSSRVPAVEPEPELVVNPWDIVLCTSGTLISCENAIVVLIIFHNPSLRAPMFLLIGSLALADLLAGIGLITNFVFAYLLQSEATKLVTIGLIVASFSASVCSLLAITVDRYLSLYYALTYHSERTVTFTYVMLVMLWGTSICLGLLPVMGWNCLRDESTCSVVRPLTKNNAAILSVSFLFMFALMLQLYIQICKIVMRHAHQIALQHHFLATSHYVTTRKGVSTLAIILGTFAACWMPFTLYSLIADYTYPSIYTYATLLPATYNSIINPVIYAFRNQEIQKALCLICCGCIPSSLAQRARSPSDV

From patent publication US20100167397A1, “ENDOCRINE CELL LINES AND METHOD OF USING THE SAME” (KYOWA HAKKO KOGYO CO., LTD., priority 2002, published 2010)
